Source: patent US20260218126A1, “METHOD FOR PRODUCING RETINAL TISSUE” (RACTHERA CO., LTD., priority 2023, published 2026)

What was measured:
Type in all cases: cell-based
[1] = system: KhES-1_Rx::Venus cells; experiment: Retinal differentiation induction with or without LDN-193189 addition (GFP and Chx10 expression)
Description: • 1. KhES-1_Rx::Venus cells (KhES-1 cells obtained by knocking a GFP variant called Venus in the locus of a retinal marker Rx) that reached optimal confluence were collected by removing the medium and washed twice with 1 mL of PBS (−). • 2. The cells were incubated at 37° C. and 5% CO2 with 0.5×TrypLE™ Select added at 500 μL/well. • 3. After the 0.5×TrypLE™ Select was removed, PBS (−) was added to the well at 2 mL/well and the cells were peeled off by spraying PBS (−). • 4. The cells were collected into a 15 mL Falcon tube and the cell number was counted. • 5. The required number of cells (5×10^5 cells per dish) was transferred to another tube and centrifuged at 1000 rpm at 20° C. for 5 minutes. • 6. After the supernatant was removed, the cells were suspended with AK02N+Y to provide a cell suspension of 5×10^5 cells/200 μL AK02N+Y. • 7. The iMatrix coating solution within the PDMS sheet was removed with an aspirator and the cell suspension (5×10^5 cells/200 μL AK02N+Y) was added to the circle and incubated at 37° C. for 30 minutes. • 8. The PDMS sheet was removed from the dish with sterilized tweezers. • 9. The cells was cultured at 37° C. and 5% CO2 with 300 μL of AK02 N+Y added to the dish. <Day 1: Medium Replacement with AK02+PS> • 1. The whole medium was replaced with 1 mL of gfCDM (10% KSR) containing LDN-193189 (04-0074-02, ReproCELL Inc.) (hereinafter referred to as LDN). (final concentration of 100 nM LDN). […] Expressions of Chx10, Recoverin, FOXG1, Crx, Tuj1, Zo-1, and Pax6 were evaluated by immunostaining with primary antibodies specific for the respective markers and secondary antibodies suitable for the primary antibodies. The effect of LDN-193189, a BMP signaling inhibitor, on the differentiation induction was evaluated. […] Also, expressions of GFP and Chx10 at Day 18 were evaluated in the patterned and non-patterned cells with or without the LDN-193189 addition. The Chx10 expression was assessed by quantitative PCR (using HPRT1 as an endogenous control) and immunostaining.

[2] = system: human iPS cells (LPF11 line); experiment: Duration of action of Y-27632 at cell seeding in patterning culture (LPF11 line); conditions: for percentage of Chx10-positive areas on the sheet surface: ImageJ
Description: The percentage of area covered by a retinal tissue on the region A may be measured by any methods, and for example, can be measured by staining the retinal tissue. For example, it is measured by staining expression of the retinal cell marker described above (such as Chx10) (e.g., by immunostaining with a fluorescently labeled anti-Chx10 antibody). Then, by using imaging software such as ImageJ software (NIH), the ratio of the area of the retinal cell marker-positive region to the area of the region A can be calculated.
(§1) For patterning, a droplet (1 cm in diameter) of a solution containing 0.785 μl of Laminin511-E8 (Nippi. Inc.) in 100 μl of PBS (Laminin51l-E8 concentration of 3.925 ng/μl) was made in the center of the wells of a 12-well plate (Iwaki, for cell culture, culture area 3.8 cm^2) and then incubated at 37° C. or room temperature for 1 to 3 hours to prepare 12-well-plates for patterning culture (Laminin511-E8: 0.5 μg/cm^2).
(§2) First, a 12-well plate for patterning culture prepared by the method described in Example 1 was provided, and subconfluent human iPS cells (LPF11 and DSP-SQ lines) were washed with PBS and dispersed into single cells using TrypLE Select (Life Technologies). The human iPS cells dispersed into single cells were then seeded into one well of the patterning culture plate at a density of 2.0×10^5 cells/cm^2 and cultured under feeder-free condition in Stemfit medium in the presence of Y-27632 (ROCK inhibitor, 10 μM). Then, after 2, 4, 8, 16, or 32 hours culture, the medium was replaced with 2 ml of StemFit medium without Y-27632.
(§3) The patterning culture was then performed as described in Example 1, and on Day 20 of seeding, cells were fixed with 4% paraformaldehyde and bright-field images were obtained with a fluorescence microscope (Keyence). […] The percentage of Chx10-positive areas on the sheet surface was calculated using ImageJ software (NIH) and was 91% for sheets with Y-27632 for 32 hours, compared to 97% or more for sheets with Y-27632 for 16 hours or less (16 hours: 97%, 8 hours: 99%, 4 hours: 98%, 2 hours: 99%).

[3] = system: human iPS cells (DSP-SQ line); experiment: Duration of action of Y-27632 at cell seeding in patterning culture (DSP-SQ line); conditions: shortening the duration of action of Y-27632; Day 20; immunostaining
Description: as §1
First, a 12-well plate for patterning culture prepared by the method described in Example 1 was provided, and subconfluent human iPS cells (LPF11 and DSP-SQ lines) were washed with PBS and dispersed into single cells using TrypLE Select (Life Technologies). […]
as §3

[4] = system: human iPS cells (LPF11 line); experiment: BMP4 concentration for retinal differentiation by patterning culture (Rx immunostaining, real-time PCR); conditions: Day 20
Description: as §2, with “line)” for “and DSP-SQ lines)”, “Two” for “Then, after 2, 4, 8, 16, or 32”, “later,” for “culture,”, “Y-27632 and patterning culture was performed as described in Example 1.” for “Y-27632.”
On Day 7 of patterning culture, the medium was replaced with serum-free medium (gfCDM+KSR) containing exogenous human recombinant BMP4 (R&D) at a final concentration of 0, 1.5, 3, 6, or 12 nM. Thereafter, half of the medium was replaced with serum-free medium (gfCDM+KSR) without human recombinant BMP4 every 2 to 3 days. […]
Total RNA was then extracted from the retinal tissue using a spin column (QIAGEN, RNeasy Micro kit) by the method described in the kit. The concentration of total RNA was measured by a measuring device (Nanodrop, Thermo scientific) and then reverse transcribed into cDNA using reverse transcriptase and primers (Reverse Transcription Master Mix Kit, Fluidigm). […] The Pre-Run reaction solutions were then injected into a flow-through multi-well (96. 96 Dynamic Array IFC, Fluidigm) using an IFC Controller HX (Fluidigm), and the expression levels of marker genes for neural retina and for by-products other than neural retina were determined by real-time PCR using a multi-sample real-time PCR system (Biomark HD, Fluidigm).
Specifically, the ΔCt value was calculated from the difference between the Ct value of the target gene and the Ct value of GAPDH, the gene used as the internal standard, and the ratio of expression level of each gene was calculated from the difference in ΔCt between samples (ΔΔCt).

c1ccc2c(-c3cnn4cc(-c5ccc(N6CCNCC6)cc5)cnc34)ccnc2c1 [LDN-193189, 4-[6-(4-Piperazin-1-ylphenyl)pyrazolo[1,5-a]pyrimidin-3-yl]quinoline]
GFP expression ([1]; Day 11, patterning culture, LDN-193189 100 nM from Day 3 to Day 8, compared to cells without LDN-193189): uniform GFP expression | Chx10 expression ([1]; Day 18, without patterning culture, quantitative PCR (HPRT1 control) and immunostaining, with vs without LDN-193189 addition): increased | GFP expression ([1]; Day 18, without patterning culture, with vs without LDN-193189 addition): increased

C[C@@H](N)[C@H]1CC[C@H](C(=O)Nc2ccncc2)CC1 [Y-27632]
survival of human iPS cells after removing Y-27632 ([2]; Y-27632 10 μM for 2, 4, 8, 16 or 32 hours, LPF11 and DSP-SQ lines): survived | percentage of Chx10-positive areas on the sheet surface ([2]; Y-27632 10 μM for 2 hours, Day 20): 99% | percentage of Chx10-positive areas on the sheet surface ([2]; Y-27632 10 μM for 4 hours, Day 20): 98% | percentage of Chx10-positive areas on the sheet surface ([2]; Y-27632 10 μM for 8 hours, Day 20): 99% | percentage of Chx10-positive areas on the sheet surface ([2]; Y-27632 10 μM for 16 hours or less, Day 20): ≥ 97% | percentage of Chx10-positive areas on the sheet surface ([2]; Y-27632 10 μM for 16 hours, Day 20): 97% | percentage of Chx10-positive areas on the sheet surface ([2]; Y-27632 10 μM for 32 hours, Day 20): 91% | holes on the cell sheet surface ([2]; longer duration of action of Y-27632 (2 to 32 hours), Day 20, bright-field): the more holes were created | Chx10-negative areas on the sheet surface [3]: fewer Chx10-negative areas

B1: BMP4: human recombinant BMP4 (R&D), BMP signaling activator (protein, UniProt P12644 293-408, looked up)
Bone morphogenetic protein 4: SPKHHSQRARKKNKNCRRHSLYVDFSDVGWNDWIVAPPGYQAFYCHGDCPFPLADHLNSTNHAIVQTLVNSVNSSIPKACCVPTELSAISMLYLDEYDKVVLKNYQEMVVEGCGCR
expression of retinal progenitor cell marker Rx (immunostaining) ([4]; BMP4 3 to 12 nM compared to 1.5 nM): more strongly expressed | expression of retinal progenitor cell marker genes Chx10 and Rx (relative mRNA, real-time PCR) ([4]; BMP4 3 to 12 nM compared to 1.5 nM, GAPDH internal standard): higher expression | expression of Emx2, marker gene for unintended cells (relative mRNA, real-time PCR) ([4]; BMP4 3 to 12 nM): low and suppressed expression
